What was measured:
Format in all cases: toxicity, cell-based
[1] = tested on: Fibroblast; test: Incucyte cell viability with human fibroblast; settings: 10 µM, compound concentration 10 uM
[2] = tested on: U2OS; test: Incucyte cell viability with U2OS; settings: human, 10 µM, compound concentration 10 uM
[3] = tested on: HEK-293T; test: Incucyte cell viability with HEK293T; settings: human, 10 µM, compound concentration 10 uM
[4] = 0 h, replicate number 1, timepoint 0 hours
[5] = 6 h, replicate number 1, timepoint 6 hours
[6] = 12 h, replicate number 1, timepoint 12 hours
[7] = 12 h, replicate number 2, timepoint 12 hours
[8] = 18 h, replicate number 1, timepoint 18 hours
[9] = 18 h, replicate number 2, timepoint 18 hours
[10] = 24 h, replicate number 1, timepoint 24 hours
[11] = 24 h, replicate number 2, timepoint 24 hours
[12] = 0 h, replicate number 2, timepoint 0 hours
[13] = 6 h, replicate number 2, timepoint 6 hours
Note: filed as whole numbers so only -1 and 0 and 1 occur.

| SMILES | Growth Rate [1, 4] | Growth Rate [1, 5] | Growth Rate [1, 6] | Growth Rate [1, 7] | Growth Rate [1, 8] | Growth Rate [1, 9] | Growth Rate [1, 10] | Growth Rate [1, 11] | Growth Rate [2, 4] | Growth Rate [2, 6] | Growth Rate [2, 8] | Growth Rate [2, 9] | Growth Rate [2, 10] | Growth Rate [3, 4] | Growth Rate [3, 5] | Growth Rate [3, 6] | Growth Rate [3, 8] | Growth Rate [3, 10] | Growth Rate [3, 11] | Growth Rate [2, 5] | other results |
| --- | --- | --- | --- | --- | --- | --- | --- | --- | --- | --- | --- | --- | --- | --- | --- | --- | --- | --- | --- | --- | --- |
| CCCc1c(-c2ccc(O)cc2)nn(-c2ccc(O)cc2)c1-c1ccc(O)cc1 [PROPYLPYRAZOLETRIOL] | 0 | 0 | 0 | 1 | 0 | 1 | 0 | 1 | 1 | 1 | 0 | 1 | 1 | 0 | 1 | 1 | 1 | 0 | 1 | – | Growth Rate [2, 12]: 0; Growth Rate [2, 13]: 1 |
| Cn1cc(-c2ccc3occ(-c4ccccc4-c4ccccc4)c3n2)cn1 | – | 1 | 0 | 1 | 0 | 1 | 0 | – | 0 | 1 | 0 | 1 | 1 | 0 | – | – | 1 | 1 | 0 | 1 | Growth Rate [1, 12]: 0; Growth Rate [3, 13]: 1; Growth Rate [3, 7]: 0 |
| Cc1cc(C)c(N)c(C#Cc2cccc(F)c2)n1.Cl | 0 | 0 | 0 | – | 0 | – | 0 | – | – | 0 | 0 | 1 | 0 | 1 | 0 | 0 | 0 | 0 | 1 | 0 | Growth Rate [2, 11]: 1; Growth Rate [3, 12]: 0; Growth Rate [3, 13]: 1; Growth Rate [3, 7]: 1; Growth Rate [3, 9]: 1 |
| C[C@H]1CCCN1Cc1nc2cc(NC(=O)c3ccc4cnccc4c3)ccc2[nH]1 | 0 | 0 | 1 | – | 0 | 1 | 0 | 1 | 0 | 1 | 1 | – | 1 | 1 | 0 | 0 | 1 | 1 | 0 | 0 | Growth Rate [3, 12]: 0 |
| Cc1cc(C)cc(C(=O)N(C)[C@H](Cc2ccc(-c3ccccc3)cc2)C(=O)N[C@@H](Cc2c[nH]c3ccccc23)C(=O)O)c1 | 0 | – | – | 1 | – | 1 | – | 1 | – | 0 | 0 | 1 | 0 | 1 | 0 | 0 | 0 | 0 | – | 0 | Growth Rate [1, 13]: 0; Growth Rate [2, 12]: 0; Growth Rate [2, 7]: 1; Growth Rate [2, 11]: 1; Growth Rate [3, 12]: 0 |
| C[C@H](CO)Nc1nc(SCc2cccc(Cl)c2F)nc2[nH]c(=O)sc12 | 0 | 1 | 1 | – | 1 | 0 | 1 | – | – | 0 | 0 | – | 1 | 0 | 1 | 1 | 1 | 1 | – | 1 | Growth Rate [1, 13]: 0; Growth Rate [2, 13]: 0; Growth Rate [2, 11]: 0 |

Source: ChEMBL document CHEMBL4689842, “EUbOPEN Chemogenomics Library wave 1” (2021)
